“And” between values parts separate entries of the source, which are not always exact repeats. Equal values may be shown once. “Also recorded” adds a separate entry of the source. Read-outs that look alike come from different tables or passages of the source.
How the values were obtained:
[1] = target: eqBChE (Equus caballus, UniProt P81908); experiment: In vitro eqBChE inhibition, Ellman's method; type: biochemical
[2] = target: eeAChE (Electrophorus electricus, UniProt O42275); experiment: In vitro eeAChE inhibition, Ellman's method; type: biochemical; settings: for IC50: mean ± SEM (n = 3)
[3] = target: T1, hMAO-B (Homo sapiens, UniProt P27338); experiment: In vitro inhibition of recombinant human MAO-B, fluorometric; type: biochemical
T1 sequence (P27338 1-520): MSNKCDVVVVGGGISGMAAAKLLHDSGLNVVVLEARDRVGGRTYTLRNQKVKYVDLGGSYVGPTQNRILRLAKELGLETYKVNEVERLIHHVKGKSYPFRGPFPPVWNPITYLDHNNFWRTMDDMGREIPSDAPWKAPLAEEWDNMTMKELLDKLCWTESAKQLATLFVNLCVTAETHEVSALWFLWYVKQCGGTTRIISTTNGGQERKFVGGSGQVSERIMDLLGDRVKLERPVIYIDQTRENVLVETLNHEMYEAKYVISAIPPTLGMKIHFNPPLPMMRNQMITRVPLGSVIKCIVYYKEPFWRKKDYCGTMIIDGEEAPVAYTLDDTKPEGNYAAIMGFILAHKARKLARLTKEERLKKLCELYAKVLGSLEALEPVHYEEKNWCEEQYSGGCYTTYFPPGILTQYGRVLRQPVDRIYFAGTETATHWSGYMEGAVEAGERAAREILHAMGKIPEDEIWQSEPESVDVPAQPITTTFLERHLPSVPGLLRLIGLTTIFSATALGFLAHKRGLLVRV

[4] = target: T2, hMAO-A (Homo sapiens, UniProt P21397); experiment: In vitro inhibition of recombinant human MAO-A, fluorometric; type: biochemical; settings: for IC50 (μM) ± SEM hMAO-A: mean ± SEM (n = 3)
T2 sequence (P21397 1-527): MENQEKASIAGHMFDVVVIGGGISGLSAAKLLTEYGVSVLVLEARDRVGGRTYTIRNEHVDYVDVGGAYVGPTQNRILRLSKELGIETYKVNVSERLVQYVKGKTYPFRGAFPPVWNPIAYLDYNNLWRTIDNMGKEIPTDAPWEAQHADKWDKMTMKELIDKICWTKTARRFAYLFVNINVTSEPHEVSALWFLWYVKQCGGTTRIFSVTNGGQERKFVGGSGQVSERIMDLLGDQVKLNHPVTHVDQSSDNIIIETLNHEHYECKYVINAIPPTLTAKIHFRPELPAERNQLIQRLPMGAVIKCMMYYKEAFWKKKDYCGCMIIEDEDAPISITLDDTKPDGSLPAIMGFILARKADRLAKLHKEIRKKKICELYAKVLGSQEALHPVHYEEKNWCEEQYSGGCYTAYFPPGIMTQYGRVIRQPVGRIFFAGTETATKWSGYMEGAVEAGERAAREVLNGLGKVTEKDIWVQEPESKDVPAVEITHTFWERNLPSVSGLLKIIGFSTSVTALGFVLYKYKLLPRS

[5] = PAMPA-BBB permeation assay; settings: prediction of BBB penetration from Pe
[6] = test system: animals; experiment: Acute oral toxicity in animals; type: in vivo; settings: doses from 50 to 2000 mg/kg body weight, eight animals per group
[7] = Neurotoxicity MTT assay on neuroblastoma SH-SY5Y cells; type: cell-based; settings: human
[8] = target: acetylcholinesterase (Electrophorus electricus, UniProt O42275); experiment: Kinetic analysis of AChE inhibition; type: biochemical
Sequence of acetylcholinesterase (O42275 24-633): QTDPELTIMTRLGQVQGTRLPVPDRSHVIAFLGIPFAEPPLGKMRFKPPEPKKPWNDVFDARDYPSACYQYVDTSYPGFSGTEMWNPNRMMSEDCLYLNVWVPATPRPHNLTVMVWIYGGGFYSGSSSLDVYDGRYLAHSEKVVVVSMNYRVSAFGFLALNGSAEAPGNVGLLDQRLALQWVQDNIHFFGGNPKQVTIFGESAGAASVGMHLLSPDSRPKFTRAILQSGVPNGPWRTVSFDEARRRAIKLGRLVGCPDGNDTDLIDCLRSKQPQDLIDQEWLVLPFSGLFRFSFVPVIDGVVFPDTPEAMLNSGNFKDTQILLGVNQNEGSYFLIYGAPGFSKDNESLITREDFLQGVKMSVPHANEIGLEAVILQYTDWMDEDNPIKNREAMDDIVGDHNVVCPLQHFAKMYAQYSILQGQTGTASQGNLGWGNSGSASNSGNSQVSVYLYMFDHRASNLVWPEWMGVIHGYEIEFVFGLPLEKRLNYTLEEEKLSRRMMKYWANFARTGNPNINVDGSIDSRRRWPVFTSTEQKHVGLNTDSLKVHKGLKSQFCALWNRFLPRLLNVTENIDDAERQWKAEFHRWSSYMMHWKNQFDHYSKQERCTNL

Sequence of eeAChE (O42275 24-633): as above
Sequence of eqBChE (P81908 whole entry): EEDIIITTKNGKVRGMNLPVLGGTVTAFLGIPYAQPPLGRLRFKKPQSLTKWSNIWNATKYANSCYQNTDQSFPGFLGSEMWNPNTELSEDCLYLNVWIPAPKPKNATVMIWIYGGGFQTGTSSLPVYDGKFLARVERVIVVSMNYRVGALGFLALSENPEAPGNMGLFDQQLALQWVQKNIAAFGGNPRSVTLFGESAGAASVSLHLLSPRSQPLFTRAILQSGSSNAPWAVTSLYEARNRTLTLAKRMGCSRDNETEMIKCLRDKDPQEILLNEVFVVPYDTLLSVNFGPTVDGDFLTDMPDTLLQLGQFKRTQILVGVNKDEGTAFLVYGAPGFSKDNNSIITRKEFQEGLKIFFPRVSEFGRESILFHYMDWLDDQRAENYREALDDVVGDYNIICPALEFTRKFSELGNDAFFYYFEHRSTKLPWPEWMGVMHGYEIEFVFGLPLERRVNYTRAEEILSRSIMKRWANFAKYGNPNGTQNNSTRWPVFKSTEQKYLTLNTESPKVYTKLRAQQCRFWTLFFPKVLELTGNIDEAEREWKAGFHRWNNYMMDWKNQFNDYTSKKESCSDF

Row | SMILES | IC50 [1] | SI = selectivity index = IC50 of eqBChE/IC50 of eeAChE [2] | IC50 ([2]; IC50 (μM) ± SEM eeAChE) | IC50 [3] | SI = selectivity index = IC50 of hMAO-A/IC50 of hMAO-B [3] | IC50 [4] | prediction (PAMPA-BBB) (CNS+, CNS–) [5] | also measured
1 | O=C1CC(c2ccccc2)CC2=C1C(c1c[nH]c3ccccc13)n1c(s/c(=C\c3ccc(OCc4ccccc4)cc3)c1=O)=N2 (centres unmarked) [Compound 32] | 1700 ± 110 nM | 1.9 | 0.86 ± 0.14 µM | 810 ± 10 nM | 13.9 | 11200 ± 1300 nM |  | 
2 | O=C1CC(c2ccccc2)CC2=C1C(c1c[nH]c3ccccc13)n1c(s/c(=C\c3ccc(OCCNCCc4c[nH]c5ccccc45)cc3)c1=O)=N2 (centres unmarked) [Compound 36] | 1390 ± 60 nM | 17.2 | 0.081 ± 0.03 µM | 100 ± 10 nM |  |  |  | IC50 (μM) ± SEM hMAO-A [4]: not able to show MAO-A inhibition activity at tested concentration
3 | CC(=O)[C@H]1CC[C@H]2[C@@H]3CCC4=CC(=O)CC[C@]4(C)[C@H]3CC[C@]12C [progesterone] |  |  |  |  |  |  | CNS+ (‘CNS+’ (prediction of high BBB permeation); Pe (10^–6 cm/s) > 4.39) | 
4 | CC1(C)CC(=O)C2=C(C1)N=c1s/c(=C\c3ccc(OCc4ccccc4)cc3)c(=O)n1C2c1c[nH]c2ccccc12 (centres unmarked) [Compound 31] | 13900 ± 990 nM | 3.7 | 3.71 ± 0.11 µM | 380 ± 10 nM | 1.6 | 630 ± 40 nM |  | 
5 | COc1ccc(C2CC(=O)C3=C(C2)N=c2s/c(=C\c4ccc(OCc5ccccc5)cc4)c(=O)n2C3c2c[nH]c3ccccc23)cc1 (centres unmarked) [Compound 33] | 1010 ± 60 nM | 1.3 | 0.79 ± 0.09 µM | 670 ± 10 nM | 72.2 | 48400 ± 2280 nM |  | 
6 | COc1ccc(C2CC(=O)C3=C(C2)N=c2s/c(=C\c4c[nH]c5ccccc45)c(=O)n2C3c2c[nH]c3ccccc23)cc1 (centres unmarked) [Compound 28] | 10500 ± 1090 nM | 11.8 | 0.89 ± 0.1 µM | 310 ± 10 nM | 119.2 | 36900 ± 1220 nM |  | 
7 | CC1(C)CC(=O)C2=C(C1)N=c1s/c(=C\c3ccc(OCCNCCc4c[nH]c5ccccc45)cc3)c(=O)n1C2c1c[nH]c2ccccc12 (centres unmarked) [Compound 35] | 630 ± 70 nM | 15.0 | 0.04 µM and 0.042 µM | 330 ± 10 nM | 5.8 | 1930 ± 10 nM | CNS+ (‘CNS+’ (prediction of high BBB permeation); Pe (10^–6 cm/s) > 4.39) | acute toxicity (survival, clinical signs) [6]: All animals were found alive; viability at 1 µM [7]: 98.9 ± 1.23%; viability at 10 µM [7]: 95.2 ± 1.54%; viability at 20 µM [7]: 94.9 ± 1.01%; viability at 40 µM [7]: 91.6 ± 1.59%; Ki [8]: 12 nM; type of inhibition ([8]; Lineweaver–Burke double reciprocal plot): mixed inhibition mode; also recorded: mixed-type inhibition
8 | O=C1CCCC2=C1C(c1c[nH]c3ccccc13)n1c(s/c(=C\c3ccc(OCCNCCc4c[nH]c5ccccc45)cc3)c1=O)=N2 (centres unmarked) [Compound 34] | 440 ± 10 nM | 3.7 | 0.12 ± 0.01 µM | 280 ± 10 nM | 5.3 | 1500 ± 10 nM |  | 
9 | NCCc1ccc(O)c(O)c1 [dopamine] |  |  |  |  |  |  | CNS- (“CNS-” (prediction of low BBB permeation); Pe (10^–6 cm/s) < 1.78) | 
10 | O=C1CCCC2=C1C(c1c[nH]c3ccccc13)n1c(s/c(=C\c3ccc(OCc4ccccc4)cc3)c1=O)=N2 (centres unmarked) [Compound 30] | 8970 ± 770 nM | 1.9 | 4.67 ± 0.29 µM | 370 ± 10 nM | 1.3 | 480 ± 30 nM |  | acute toxicity (survival, clinical signs) [6]: All animals were found alive
11 | CCn1cc(C(=O)O)c(=O)c2cc(F)c(N3CCNC(C)C3)c(F)c21 (centres unmarked) [lomefloxacin] |  |  |  |  |  |  | CNS- (“CNS-” (prediction of low BBB permeation); Pe (10^–6 cm/s) < 1.78) | 
12 | O=C1CC(c2ccccc2)CC2=C1C(c1c[nH]c3ccccc13)n1c(s/c(=C\c3c[nH]c4ccccc34)c1=O)=N2 (centres unmarked) [Compound 27] | 13700 ± 1210 nM | 14.1 |  | 470 ± 10 nM | 19.9 | 9360 ± 1010 nM |  | IC50 ([2]; read-out: IC50 (μM) ± SEM eeAChE): 0.97 ± 0.1 µM
13 | COc1ccc(C2CC(=O)C3=C(C2)N=c2s/c(=C\c4ccc(OCCNCCc5c[nH]c6ccccc56)cc4)c(=O)n2C3c2c[nH]c3ccccc23)cc1 (centres unmarked) [Compound 37] | 980 ± 110 nM | 14.2 | 0.07 µM and 0.069 µM | 140 ± 10 nM |  |  | CNS+ (‘CNS+’ (prediction of high BBB permeation); Pe (10^–6 cm/s) > 4.39) | acute toxicity (survival, clinical signs) [6]: All animals were found alive; viability at 1 µM [7]: 96.1 ± 0.98%; viability at 10 µM [7]: 92.1 ± 1.09%; viability at 20 µM [7]: 90.33 ± 0.83%; viability at 40 µM [7]: 88.2 ± 1.55%; IC50 (μM) ± SEM hMAO-A [4]: not able to show MAO-A inhibition activity at tested concentration
14 | CC1(C)CC(=O)C2=C(C1)N=c1s/c(=C\c3c[nH]c4ccccc34)c(=O)n1C2c1c[nH]c2ccccc12 (centres unmarked) [Compound 26] | 19300 ± 1140 nM | 3.1 | 6.21 ± 0.16 µM | 240 ± 10 nM | 2.4 | 570 ± 80 nM |  | 
15 | Cc1nnc2n1-c1ccc(Cl)cc1C(c1ccccc1)=NC2 [alprazolam] |  |  |  |  |  |  | CNS+ (‘CNS+’ (prediction of high BBB permeation); Pe (10^–6 cm/s) > 4.39) | 

Reference: article PMC8945123 (ACS Omega, 2022)
